Here are results for one compound from patent US20230172884A1, “USE OF BUCILLAMINE IN THE TREATMENT OF INFECTIOUS DISEASES” (Revive Therapeutics Ltd, priority 2020, published 2023).

For series [1], the system named is COVID-19. The experiment in a line: Phase 3 multi-center, randomized, double-blind, placebo-controlled study of Bucillamine in patients with mild-moderate COVID-19. It counts as in vivo, human. The following applies: Bucillamine 100 mg or 200 mg TID for up to 14 days, preliminary indications to date. Here is the method:
A Phase 3 confirmatory clinical trial titled, “A Multi-Center, Randomized, Double-Blind, Placebo-Controlled Study of Bucillamine in Patients with Mild-Moderate COVID-19”, was undertaken to enroll up to 1,000 patients randomized 1:1:1 to receive Bucillamine 100 mg three times a day (“TID”), Bucillamine 200 mg TID or placebo TID for up to 14 days. The primary objective is to compare the frequency of hospitalization or death in patients with mild-moderate COVID-19 receiving Bucillamine therapy with those receiving placebo. The primary endpoint is the proportion of patients meeting a composite endpoint of hospitalization or death from the time of the first dose through Day 28 following randomization. Efficacy was assessed by comparing clinical outcomes (death or hospitalization), disease severity using the 8-category NIAID COVID ordinal scale, supplemental oxygen use, and progression of COVID-19 between patients receiving standard-of-care plus Bucillamine (high dose and/or low dose) and patients receiving standard-of-care plus placebo.

The conditions of series [2]: versus N-acetylcysteine (NAC); cited from earlier work.
The conditions of series [3]: statement with literature references 8, 9; cited from earlier work.
For series [4] the following is noted: not told; cited from earlier work.

`CC(C)(S)C(=O)NC(CS)C(=O)O` (stereo not drawn) [Bucillamine, N-(mercapto-2-methylpropionyl)-l-cysteine]: in series [1], the “hospitalization or death from COVID-19 (composite clinical outcome)” value is given as “none of the patients receiving Bucillamine in the trial have to date been hospitalised for COVID-19 or have died from COVID-19”. Besides, the “potency as a thiol donor in vivo relative to NAC” value in series [2] is listed as 16 fold. In series [3], the toxicity result is “non-toxic”. Moreover, the cell permeability result in series [4] was “highly cell permeable”.
